# System: Trp-p8 orthologues
# Test: not given
# Conditions: reported by McKemy et al. and Peier et al.; cited from earlier work
row,SMILES,Effective concentration in inducing calcium influx [µM]
1,"O=C1NC(c2cccc([N+](=O)[O-])c2)=CCN1c1ccccc1O [Icilin, 1-(2-hydroxyphenyl)-4-(3-nitrophenyl)-1,2,3,6-tetrahydropyrimidine-2-one]",0.1 to 1
2,"CC1CCC(C(C)C)C(O)C1 (stereo not drawn) [Menthol, 2-isopropyl-5-methyl-cyclohexanol]",10 to 100

# Molecular target: T1, Trp-p8 (Homo sapiens, UniProt Q7Z2W7, T58I)
# T1 construct: expressed in transfected cells
# T1 sequence (Q7Z2W7 whole entry T58I): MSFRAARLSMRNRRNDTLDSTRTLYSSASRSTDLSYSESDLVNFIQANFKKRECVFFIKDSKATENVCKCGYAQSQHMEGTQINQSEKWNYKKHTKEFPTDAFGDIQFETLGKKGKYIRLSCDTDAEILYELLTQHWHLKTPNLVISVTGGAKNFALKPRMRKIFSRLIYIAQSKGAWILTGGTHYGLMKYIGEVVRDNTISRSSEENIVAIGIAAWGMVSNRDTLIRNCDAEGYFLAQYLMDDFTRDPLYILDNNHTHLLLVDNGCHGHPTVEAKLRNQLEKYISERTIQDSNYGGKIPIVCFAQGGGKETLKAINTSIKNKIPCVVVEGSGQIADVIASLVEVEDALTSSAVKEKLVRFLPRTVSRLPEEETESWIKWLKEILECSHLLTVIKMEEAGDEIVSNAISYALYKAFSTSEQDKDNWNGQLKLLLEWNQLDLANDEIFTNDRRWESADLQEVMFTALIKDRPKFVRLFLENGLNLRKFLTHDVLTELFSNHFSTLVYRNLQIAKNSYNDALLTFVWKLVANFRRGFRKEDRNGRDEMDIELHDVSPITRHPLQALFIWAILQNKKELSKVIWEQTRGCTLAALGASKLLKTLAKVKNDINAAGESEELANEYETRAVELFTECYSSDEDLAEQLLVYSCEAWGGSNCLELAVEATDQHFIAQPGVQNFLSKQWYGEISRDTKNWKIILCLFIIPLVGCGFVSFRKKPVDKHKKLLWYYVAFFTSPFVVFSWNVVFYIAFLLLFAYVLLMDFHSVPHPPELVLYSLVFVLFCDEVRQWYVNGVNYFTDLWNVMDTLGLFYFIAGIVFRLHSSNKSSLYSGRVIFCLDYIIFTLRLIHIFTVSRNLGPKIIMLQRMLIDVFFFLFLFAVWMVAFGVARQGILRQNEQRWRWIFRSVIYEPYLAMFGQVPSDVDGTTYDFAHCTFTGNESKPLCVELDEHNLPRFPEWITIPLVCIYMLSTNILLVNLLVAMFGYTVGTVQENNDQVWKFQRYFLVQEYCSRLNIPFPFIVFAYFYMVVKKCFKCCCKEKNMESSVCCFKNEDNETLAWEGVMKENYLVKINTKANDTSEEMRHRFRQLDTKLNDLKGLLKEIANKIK
# Test: Cell viability (ATP) assay for Trp-p8 antagonists: protection of CHO/Trp-p8 cells from toxic control agonist D-1607
# Type: cell-based
# Conditions: Table 2, Formula VIII antagonists; 10 μM compound plus toxic concentration of control agonist D-1607, CHO/Trp-p8 cells, 37° C.; ATP level relative to DMSO
# Method: FIG. 4 is a graph depicting exemplary results from a primary screen for Trp-p8 antagonists using the ATP viability assay, described herein, with CHO/Trp-p8 cells at 37° C. CHO/Trp-p8 cells were exposed to compounds, at different concentrations, in 1% DMSO or 1% DMSO in combination with a toxic concentration of the Trp-p8 agonist 1607. The viability of cells was measured after 24-26 hours at 37° C. using the ATP assay.
# As a primary screen for efficacy and specificity for agonists, both the non-transfected CHO and CHO/Trp-p8 cells were exposed to 10 μM of test compounds in 1% dimethylsulfoxide (DMSO) or 1% DMSO (control) in a 96-well black walled, black-bottomed, cell-culture treated plate. DMSO was the solvent for all of the compounds tested. After 24-26 hours at 37° C., the cells were lysed and ATP concentration determined via a chemiluminescence assay using a commercially available reagent kit—Cell Titer-Glo (Promega; Madison, Wis.). […] (EC50 is defined herein as the agonist concentration at which there is a 50% reduction in cell viability).
# Trp-p8 antagonists were identified by employing a cell viability assay with CHO/Trp-p8 cells at 37° C. (see Example 7) with the following modification. Within the context of the present invention, compounds that protect CHO/Trp-p8 cells from the toxic effect of a control agonist thereby maintaining the viability of the CHO/Trp-p8 cell exposed to a Trp-p8 agonist is defined as antagonist. As a primary screen for antagonists, CHO/Trp-p8 cells were exposed to 10 μM of test compounds in 1% dimethylsulfoxide (DMSO) or 1% DMSO plus a toxic concentration of a control agonist, D-1607.
row,SMILES,Relative Viability (%) at 10 μM [%]
1,CCCC1c2cccn2CCN1C(=O)O[C@@H]1C[C@H](C)CC[C@H]1C(C)C (stereo partly drawn) [compound 1941],98
2,CC(C)[C@@H]1CC[C@@H](C)C[C@H]1NC(=O)CCC1CCCC1 [compound 1996],89
3,CC(C)[C@@H]1CC[C@@H](C)C[C@H]1NC(=O)[C@@H]1C[C@H]1c1ccccc1 [compound 2013],95
4,CC(Oc1ccccc1)C(=O)N[C@@H]1C[C@H](C)CC[C@H]1C(C)C (stereo partly drawn) [compound 2018],103
5,CCCCOc1ccc(C(=O)N[C@@H]2C[C@H](C)CC[C@H]2C(C)C)cc1 [compound 2044],94
6,CC(C)[C@@H]1CC[C@@H](C)C[C@H]1NC(=O)COc1ccccc1[N+](=O)[O-] [compound 2045],191
7,CC(C)[C@@H]1CC[C@@H](C)C[C@H]1NC(=O)[C@@]12CC[C@@](C)(C(=O)O1)C2(C)C [compound 2046],89
8,CCCc1c(C(=O)N[C@@H]2C[C@H](C)CC[C@H]2C(C)C)cnn1-c1ccccc1 [compound 2067],105
9,CC(C)[C@@H]1CC[C@@H](C)C[C@H]1NS(=O)(=O)c1c(Cl)cc(Cl)cc1Cl [compound 2131],59
10,CC(C)[C@@H]1CC[C@@H](C)C[C@H]1NS(=O)(=O)c1cc(Br)c(Br)s1 [compound 2134],63
11,CC(C)[C@@H]1CC[C@@H](C)C[C@H]1NC(=O)SCc1ccccc1 [compound 2291],87
12,CC(C)[C@@H]1CC[C@@H](C)C[C@H]1NC(=O)SCc1ccccc1Cl [compound 2306],92
13,Cc1ccnc(N(Cc2ccccc2)C(=O)[C@@H]2C[C@H](C)CC[C@H]2C(C)C)c1 [compound 2639],102
14,COc1ccc(C2c3[nH]c4ccccc4c3CCN2C(=O)[C@@H]2C[C@H](C)CC[C@H]2C(C)C)cc1CN1CCc2cc(OC)c(OC)cc2C1C (stereo partly drawn) [compound 2676],83
15,Cc1ccc(O)c(CN[C@@H]2C[C@H](C)CC[C@H]2C(C)C)c1 [compound 2710],70
16,CC(C)[C@@H]1CC[C@@H](C)C[C@H]1NCc1c[nH]nc1-c1ccccc1 [compound 2745],62
17,CC(C)[C@@H]1CC[C@@H](C)C[C@H]1NCc1c[nH]nc1-c1ccc(F)cc1 [compound 2752],65
18,CCc1ccc(-c2n[nH]cc2CN[C@@H]2C[C@H](C)CC[C@H]2C(C)C)cc1 [compound 2754],74
19,CCCCOc1ccc(-c2n[nH]cc2CN[C@@H]2C[C@H](C)CC[C@H]2C(C)C)cc1 [compound 2777],83
20,CC(C)[C@@H]1CC[C@@H](C)C[C@H]1C(=O)Nc1ccc(S(=O)(=O)N2CCCCCC2)cc1 [compound 2865],91
21,CC(C)[C@@H]1CC[C@@H](C)C[C@H]1C(=O)Nc1nnc(Sc2ccnc3cc(Cl)ccc23)s1 [compound 3026],86

# Same assay, conditions: Table 3, Formula VII antagonists; 10 μM compound plus toxic concentration of control agonist, CHO/Trp-p8 cells, 37° C.; ATP level relative to DMSO
row,SMILES,Rel. Viab. (%) at 10 μM [%]
1,CC1CCC(C(C)C)C(OCC(O)CN2CCN(Cc3ccc(Cl)cc3)CC2)C1 (stereo not drawn) [compound 2496],82

# System: Trp-p8
# Test: not given
# Conditions: cold-sensitive neurons, Trp-p8 in Xenopus oocytes, HEK293 and CHO cells; cited from earlier work
row,SMILES,Higher temperature threshold reported for Trp-p8 activation
1,"CC1CCC(C(C)C)C(O)C1 (stereo not drawn) [Menthol, 2-isopropyl-5-methyl-cyclohexanol]",30-32 °C

# Molecular target: T1, Trp-p8
# Test: Calcium flux assay (Fura-2) for agonists in CHO/Trp-p8 cells at 37° C.
# Type: cell-based
# Conditions: 1 μM, CHO and CHO/Trp-p8 cells
# Method: FIGS. 2A-2C are graphs depicting Trp-p8 agonist-induced increases in intracellular calcium as determined by a calcium flux assay performed at 37° C.
# Calcium influx was measured using a Flexstation Microplate Fluorescence Plate Reader (Molecular Devices; Sunnyvale, Calif.). A typical assay for calcium flux was performed as follows. Cells in DMEM/Ham's F-12 based medium, typically at a density of 30,000 cells/well/100 were plated in a 96-well black-walled, clear bottomed tissue culture plate (Greiner Bio-one) and incubated for 16-20 hours at 37° C. Cells in each well were incubated for one hour at 37° C. with a Fura2-AM Fluorescent Dye/Pluronic […] mixture (Molecular Probes; Eugene, Oreg.) and dissolved in the medium containing Probenecid. […]
# Typically, the above described HEPES/HBSS-based buffer containing either no additional calcium or with calcium to increase the concentration to 2 mM and various concentrations of compounds (at 5-times the final concentrations) were added to each well using the robotic multi-channel pipettor. […] Signals were read with dual excitation wavelengths of 340 and 380 nm and emission wavelength of 510 nm with a cut-off filter at 495 nm. The signal was reported as the ratio of emission when excited at 340 nm to the emission when excited at 380 nm [Relative Fluorescence Units (RFU)]. […]
row,SMILES,Response to positive control in calcium flux assay (FIG. 2A)
1,"C[C@H](CCC(=O)O)C[C@H](C)C[C@H](C)C(=O)/C=C(\O)[C@H](C)C[C@H](C)C/C=C/[C@@H](C)[C@@H](O)[C@@H](C)[C@@H](O)C[C@@H]1CC[C@@](C)([C@H]2CC[C@@](C)([C@@H](C)O)O2)O1 [Ionomycin, reference compound]",respond similarly

# Same assay, conditions: CHO/Trp-p8 cells
row,SMILES,Increase in intracellular calcium (FIG. 2C)
1,CC(C)[C@@H]1CC[C@@H](C)C[C@H]1C(=O)NCCc1ccccc1 [compound 1603],"specific, concentration-dependent response"

# — patent US8389730B2, “Compositions and methods for the treatment of disease associated with TRP-P8 expression” (Dendreon Corporation, priority 2003, dated 2013)
